Each block holds one molecule with its values, some of them ahead of it.
How the values were obtained:
SU-DHL-6 cells = experiment: CellTiter-Glo (CTG) viability assay, SU-DHL-6; type: cell-based; conditions: Homo sapiens, 168 h; SU-DHL-6, 7 days, compound alone
Experimental: (§1) A panel of 6 lymphoma cell lines was included in the analysis (5 DLBCL and 1 Burkitt lymphoma). All cell lines were cultured in RPMI 1640 medium (Gibco) supplemented with 10%-20% FCS (Sigma) at 37 °C in 5% CO2.
(§2) To analyze direct cytotoxic and anti-proliferative effects on target cells, cell viability assays were performed using the CellTiter-Glo Kit (Promega), a luminescence assay for determination of viable cell number based on quantification of adenosine triphosphate (ATP) levels. […] Cell densities were adjusted at days 3 and 7 during the assay to avoid overgrowth. The assay was performed in clear 48- and 96-F-well bottom plates in a final volume of 1 mL or 200 μL, respectively, in a cell incubator at 37 °C and 5% CO2. In each experiment, all test conditions were performed in triplicates.
(§3) Cell viability was analyzed according to the manufacturer's protocol using the Tecan Infinite F500 plate reader. The relative viable cell count was calculated from the measured relative luminescence units (RLU) with the following equation: […]
(§4) For graphical illustration and IC50 determination, the mean values of triplicates (viability assay) or duplicates (CD19 expression) of the individual experiments were imported into GraphPad Prism software (version 8). […] IC50 curves were determined applying a non-linear regression curve fit model (sigmoidal dose response, variable slope).

SU-DHL-4 cells = experiment: CellTiter-Glo (CTG) viability assay, SU-DHL-4; type: cell-based; conditions: Homo sapiens, SU-DHL-4, 168 h
Experimental: as §1, §2, §3, §4

WSU-DLCL2 tumor = experiment: Tumor growth in WSU-DLCL2 tumor bearing CB17-SCID mice; type: in vivo
Experimental: The in vivo study was carried out in WSU-DLCL2 tumor bearing CB17-SCID mice. 4×10^6 WSU-DLCL2 cells (DLBCL cell line) per animal were implanted with matrigel (1:1) s.c. into the left flank of 6-8 weeks old female CB17-SCID mice. On study day 17, when a mean tumor volume of approximately 100 mm^3 was reached, animals were randomly allocated into treatment groups with 8 mice per group and treatment was started. Treatment was applied every day p.o. at 35 mg/kg or 50 mg/kg for Compound 1 (application volume: 10 mL/kg; formulation buffer: 20% propylene glycol, 10% Solutol HS15, 70% phthalate buffer) and biweekly i.v. at 3 mg/kg or 10 mg/kg for tafasitamab (application volume: 5 mL/kg; formulation buffer: PBS). Tumor volume and body weight were measured twice weekly. Mice were sacrificed when reaching a tumor volume >1500 mm^3 or latest at study end on day 69 after tumor cell implantation. Mean tumor growth curves were calculated using GraphPad Prism software (version 8.4.3).
The proof of concept in vivo study was performed in WSU-DLCL2 tumor bearing CB17-SCID mice.

IC50 (SU-DHL-6 cells): 3.8 nM | IC50 (SU-DHL-4 cells): 17.1 nM
Molecule: COC1CN([C@H]2CC[C@H]([C@@]3(C)Oc4c(Cl)cc(C(=O)NCc5c(SC)cc(C)[nH]c5=O)c(C)c4O3)CC2)C1 [Compound 1]

B1: tafasitamab: humanized monoclonal antibody that targets the antigen CD19, engineered in the IgG Fc-region to enhance ADCC (antibody, chains of the INN, looked up)
heavy: EVQLVESGGGLVKPGGSLKLSCAASGYTFTSYVMHWVRQAPGKGLEWIGYINPYNDGTKYNEKFQGRVTISSDKSISTAYMELSSLRSEDTAMYYCARGTYYYGTRVFDYWGQGTLVTVSSASTKGPSVFPLAPSSKSTSGGTAALGCLVKDYFPEPVTVSWNSGALTSGVHTFPAVLQSSGLYSLSSVVTVPSSSLGTQTYICNVNHKPSNTKVDKKVEPKSCDKTHTCPPCPAPELLGGPDVFLFPPKPKDTLMISRTPEVTCVVVDVSHEDPEVQFNWYVDGVEVHNAKTKPREEQFNSTFRVVSVLTVVHQDWLNGKEYKCKVSNKALPAPEEKTISKTKGQPREPQVYTLPPSREEMTKNQVSLTCLVKGFYPSDIAVEWESNGQPENNYKTTPPMLDSDGSFFLYSKLTVDKSRWQQGNVFSCSVMHEALHNHYTQKSLSLSPG
light: DIVMTQSPATLSLSPGERATLSCRSSKSLQNVNGNTYLYWFQQKPGQSPQLLIYRMSNLNSGVPDRFSGSGSGTEFTLTISSLEPEDFAVYYCMQHLEYPITFGAGTKLEIKRTVAAPSVFIFPPSDEQLKSGTASVVCLLNNFYPREAKVQWKVDNALQSGNSQESVTEQDSKDSTYSLSSTLTLSKADYEKHKVYACEVTHQGLSSPVTKSFNRGEC
tumor growth inhibition (WSU-DLCL2 tumor; monotherapy 3 mg/kg i.v. BIW): did not reveal any tumor growth inhibition | tumor growth inhibition (WSU-DLCL2 tumor; monotherapy 10 mg/kg i.v. BIW): did not reveal any tumor growth inhibition
